Columns and labels:
[1] = Stability of 5-azacytidine in whole blood; conditions: for Mean [5-aza] / % of Time 0: whole blood;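 on all read-outs here: drug level determined in plasma separated from whole blood, extracted with acetonitrile plus internal standard, then quantified by LC/MS/MS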
[2] = Stability of 5-azacytidine stored as an acetonitrile residue at minus 70° C.; conditions: for % of Time 0 / Mean [5-aza]: acetonitrile residue at minus 70° C.
[3] = Stability of 5-azacytidine stored in acetonitrile/plasma mixtures at different temperatures; conditions: for % of Fresh Prep / Mean [5-aza]: acetonitrile/plasma mixture
[4] = [5-aza] 15 ng/mL, Room Temp, 15 mins
[5] = [5-aza] 15 ng/mL, Room Temp, 30 mins
[6] = [5-aza] 15 ng/mL, Room Temp, 45 mins
[7] = [5-aza] 200 ng/mL, Ice, 15 mins
[8] = [5-aza] 200 ng/mL, Ice, 30 mins
[9] = [5-aza] 200 ng/mL, Ice, 45 mins
[10] = [5-aza] 200 ng/mL, Ice, 60 mins
[11] = [5-aza] 200 ng/mL, Room Temp, 15 mins
[12] = [5-aza] 200 ng/mL, Room Temp, 30 mins
[13] = [5-aza] 200 ng/mL, Room Temp, 45 mins
[14] = [5-aza] 200 ng/mL, Room Temp, 60 mins
[15] = [5-aza] 30 ng/mL, Freeze-thaw (minus 70° C. for 4 days followed by RT for 5.5 hours)
[16] = [5-aza] 400 ng/mL, Freeze-thaw (minus 70° C. for 4 days followed by RT for 5.5 hours)

degradation in whole blood ([1]; room temperature): rapidly degrades | degradation in whole blood ([1]; stored on ice, compared with room temperature): slightly reduced rate | Mean [5-aza] ([1]; [5-aza] 15 ng/mL, Ice, 0 mins): 16.1 (N = 5) ng/mL | % of Time 0 ([1]; [5-aza] 15 ng/mL, Ice, 15 mins): 80.7% | Mean [5-aza] ([1]; [5-aza] 15 ng/mL, Ice, 15 mins): 13.0 (N = 4) ng/mL | % of Time 0 ([1]; [5-aza] 15 ng/mL, Ice, 30 mins): 77.6% | Mean [5-aza] ([1]; [5-aza] 15 ng/mL, Ice, 30 mins): 12.5 (N = 3) ng/mL | % of Time 0 ([1]; [5-aza] 15 ng/mL, Ice, 45 mins): 70.8% | Mean [5-aza] ([1]; [5-aza] 15 ng/mL, Ice, 45 mins): 11.4 (N = 4) ng/mL | % of Time 0 ([1]; [5-aza] 15 ng/mL, Ice, 60 mins): 71.4% | Mean [5-aza] ([1]; [5-aza] 15 ng/mL, Ice, 60 mins): 11.5 (N = 5) ng/mL | Mean [5-aza] ([1]; [5-aza] 15 ng/mL, Room Temp, 0 mins): 16.1 (N = 5) ng/mL | % of Time 0 [1, 4]: 82.6% | Mean [5-aza] [1, 4]: 13.3 (N = 5) ng/mL | % of Time 0 [1, 5]: 71.4% | Mean [5-aza] [1, 5]: 11.5 (N = 5) ng/mL | % of Time 0 [1, 6]: 64.0% | Mean [5-aza] [1, 6]: 10.3 (N = 2) ng/mL | Mean [5-aza] ([1]; [5-aza] 200 ng/mL, Ice, 0 mins): 152.0 (N = 5) ng/mL | % of Time 0 [1, 7]: 79.6% | Mean [5-aza] [1, 7]: 121.0 (N = 5) ng/mL | % of Time 0 [1, 8]: 73.0% | Mean [5-aza] [1, 8]: 111.0 (N = 5) ng/mL | % of Time 0 [1, 9]: 72.4% | Mean [5-aza] [1, 9]: 110.0 (N = 5) ng/mL | % of Time 0 [1, 10]: 57.2% | Mean [5-aza] [1, 10]: 87.0 (N = 5) ng/mL | Mean [5-aza] ([1]; [5-aza] 200 ng/mL, Room Temp, 0 mins): 152.0 (N = 5) ng/mL | % of Time 0 [1, 11]: 73.4% | Mean [5-aza] [1, 11]: 111.6 (N = 5) ng/mL | % of Time 0 [1, 12]: 57.8% | Mean [5-aza] [1, 12]: 87.9 (N = 5) ng/mL | % of Time 0 [1, 13]: 37.3% | Mean [5-aza] [1, 13]: 56.7 (N = 5) ng/mL | % of Time 0 [1, 14]: 21.7% | Mean [5-aza] [1, 14]: 33.0 (N = 5) ng/mL | time stable as acetonitrile residue ([2]; about minus 70° C., stable = within ±20% of freshly prepared sample): at least 14 months | % of Time 0 ([2]; [5-aza] 30 ng/mL, 4 Weeks): 90.0% | Mean [5-aza] ([2]; [5-aza] 30 ng/mL, 4 Weeks): 27.1 (N = 6) ng/mL | % of Time 0 ([2]; [5-aza] 30 ng/mL, 6 Months): 105.3% | Mean [5-aza] ([2]; [5-aza] 30 ng/mL, 6 Months): 31.7 (N = 6) ng/mL | % of Time 0 ([2]; [5-aza] 30 ng/mL, 7 Days): 93.7% | Mean [5-aza] ([2]; [5-aza] 30 ng/mL, 7 Days): 28.2 (N = 6) ng/mL | % of Time 0 ([2]; [5-aza] 30 ng/mL, 14 Days): 97.3% | Mean [5-aza] ([2]; [5-aza] 30 ng/mL, 14 Days): 29.3 (N = 6) ng/mL | % of Time 0 ([2]; [5-aza] 30 ng/mL, 14 Months): 111.0% | Mean [5-aza] ([2]; [5-aza] 30 ng/mL, 14 Months): 33.4 (N = 5) ng/mL | % of Time 0 ([2]; [5-aza] 30 ng/mL, 15 Weeks): 100.7% | Mean [5-aza] ([2]; [5-aza] 30 ng/mL, 15 Weeks): 30.3 (N = 6) ng/mL | Mean [5-aza] ([2]; [5-aza] 30 ng/mL, Time 0): 30.1 (N = 6) ng/mL | % of Time 0 ([2]; [5-aza] 400 ng/mL, 4 Weeks): 95.6% | Mean [5-aza] ([2]; [5-aza] 400 ng/mL, 4 Weeks): 365 (N = 5) ng/mL | % of Time 0 ([2]; [5-aza] 400 ng/mL, 6 Months): 97.4% | Mean [5-aza] ([2]; [5-aza] 400 ng/mL, 6 Months): 372 (N = 5) ng/mL | % of Time 0 ([2]; [5-aza] 400 ng/mL, 7 Days): 98.7% | Mean [5-aza] ([2]; [5-aza] 400 ng/mL, 7 Days): 377 (N = 6) ng/mL | % of Time 0 ([2]; [5-aza] 400 ng/mL, 14 Days): 91.6% | Mean [5-aza] ([2]; [5-aza] 400 ng/mL, 14 Days): 350 (N = 6) ng/mL | % of Time 0 ([2]; [5-aza] 400 ng/mL, 14 Months): 115.9% | Mean [5-aza] ([2]; [5-aza] 400 ng/mL, 14 Months): 443 (N = 5) ng/mL | % of Time 0 ([2]; [5-aza] 400 ng/mL, 15 Weeks): 103.9% | Mean [5-aza] ([2]; [5-aza] 400 ng/mL, 15 Weeks): 397 (N = 6) ng/mL | Mean [5-aza] ([2]; [5-aza] 400 ng/mL, Time 0): 382 (N = 6) ng/mL | measured 5-azacytidine concentration, deviation from initial concentration in the plasma sample ([2]; samples prepared according to the methods, LC/MS/MS): ≤ 20% | time stable in acetonitrile layer over plasma layer ([3]; about minus 70° C.): at least 4 days | time stable in acetonitrile layer over plasma layer (acetonitrile/plasma solution) ([3]; about room temperature, stable = within ±20% of freshly prepared sample): at least 3 hours | % of Fresh Prep ([3]; [5-aza] 30 ng/mL, 3 hours RT): 98.7% | Mean [5-aza] ([3]; [5-aza] 30 ng/mL, 3 hours RT): 29.8 (N = 6) ng/mL | % of Fresh Prep [3, 15]: 103.3% | Mean [5-aza] [3, 15]: 31.2 (N = 6) ng/mL | Mean [5-aza] ([3]; [5-aza] 30 ng/mL, Fresh prep.): 30.2 (N = 6) ng/mL | % of Fresh Prep ([3]; [5-aza] 400 ng/mL, 3 hours RT): 89.4% | Mean [5-aza] ([3]; [5-aza] 400 ng/mL, 3 hours RT): 371 (N = 6) ng/mL | % of Fresh Prep [3, 16]: 88.4% | Mean [5-aza] [3, 16]: 367 (N = 6) ng/mL | Mean [5-aza] ([3]; [5-aza] 400 ng/mL, Fresh prep.): 415 (N = 6) ng/mL | time stable in acetonitrile/plasma solution ([3]; minus 70° C. with one freeze-thaw cycle of 5.5 hours at room temperature, stable = within ±20% of freshly prepared sample): at least 4 days
Compound: Nc1ncn([C@@H]2O[C@H](CO)[C@@H](O)[C@H]2O)c(=O)n1 [5-azacytidine, 4-amino-1-β-D-ribofuranosyl-1,3,5-triazin-2(1H)-one]

Reference: patent publication US7192781B2 (Pharmion Corporation, priority 2004, dated 2007)
